Assay [1] can be described thus: Effective amount of Amylase AD “Amano” 1 accelerating the conversion into aglycon isoflavones by diglycosidase. It counts as biochemical. As to conditions: Amylase AD “Amano” 1 at 0.005% (w/v) with diglycosidase 0.1% (w/v); roasted soy flour 30% (w/v), pH 5.0, 50° C., 3 hours. The procedure: Roasted soy flour (manufactured by Fuji Shokuhin K.K.) was suspended into 0.1 M sodium acetate adjusted to pH 3.15, the substrate concentration was adjusted to 30% (w/v), and the pH of the solution to 5.0. The suspension was pre-incubated at 50° C. for 1 hour, whereby the temperature of the suspension was elevated to 50° C. To the suspension were added diglycosidase so as to be a final concentration of 0.1% (w/v) (0.3 AU) and Amylase AD “Amano” 1 (manufactured by Amano Enzyme Innc.) so as to be 0.1, 0.05, 0.01, 0.005, and 0.0001% (w/v). The whole was reacted at 50° C. for 3 hours and the change of isoflavone composition was analyzed by HPLC.

The subject of another assay is Purified diglycosidase. Nature of the assay: Influence of free glucose on diglycosidase activity. To be noted: isolated aglycon amount at glucose 0% and 0.5 hour = 100%. It counts as biochemical, Penicillium multicolor IAM7153. The method, then: Purified diglycosidase was diluted with 20 mM acetate buffer of pH 4.0 to prepare a 0.75 AU/mL enzyme solution.
With a glucose solution was mixed 10 μL of each 2 mM substrate solution described in Example 2, and 20 mM acetate buffer of pH 4.0 was added thereto to be a liquid volume of 210 μL. Further, 40 μL of the enzyme solution was added and reaction was carried out at a final liquid volume of 250 μL. Adjustment of the glucose solution to be added allows glucose to exist in the reaction mixture in the range of 0 to 20%. The reaction was carried out at 55° C. and the existence of isoflavone glycosides and aglycon isoflavones was detected by HLPC at 0, 0.5, 1, and 3 hours of the reaction.

Assay [2] deals with β-Glucosidase derived from almond. Nature of the assay: Reactivity toward various isoflavone glycosides (HPLC). It counts as biochemical. As to conditions: 55 °C, pH 4.0. Further details: unit not given here. The procedure:
(§1) Diglycosidase was diluted with an acetate buffer of pH 4.0 to prepare a 0.75 AU/mL enzyme solution. As references, a similar operation was conducted using β-glucosidase (manufactured by Fluka) derived from Aspergillus niger, β-glucosidase (manufactured by Sigma) derived from almond, β-xylosidase derived from pectinase G (manufactured by Amano Enzyme Inc.). Each of purified products of isoflavone glycosides (glycitin, acetylglycitin, malonylglycitin, daidzin, acetyldaidzin, malonyldaidzin, genistin, acetylgenistin, malonylgenistin, all manufactured by Nacalai Tesque, Inc.) was dissolved in methanol to prepare each 2 mM substrate solution. The reaction was carried out by mixing 10 μL of a substrate solution, 200 μL of 20 mM acetate buffer (pH 4.0), and 40 μL of each purified enzyme solution at a total liquid volume of 250 μL. The reaction was carried out at 55° C. and isolation of an aglycon isoflavone from an isoflavone glycoside in the reaction mixture was detected by HLPC at 0, 1, 3, and 6 hours of the reaction.
(§2) To the reaction mixture was added 700 μL of ethanol, followed by stirring and ultrasonication. After centrifugation at 15,000 rpm and 4° C. for 10 minutes, the supernatant was filtered through a filter and then the filtrate was applied to HPLC.
(§3) The isoflavone glycoside and aglycon isoflavone contained in the filtrate was separated and detected by a high performance liquid chromatography (HPLC, Shimadzu CLASS LC-10 system) using TOSOH TSK gel ODS-80TM column (manufactured by Tosoh Corporation). […] The absorbance at 260 nm was detected by a UV detector (Shimadzu, SPD-10AV). Using purified products (manufactured by Nacalai Tesque, Inc.) of the above isoflavone glycosides and aglycon isoflavones, the isoflavone glycoside and aglycon isoflavone were quantitatively determined according to a calibration curve method. By the way, unless otherwise stated, the measuring conditions of HPLC herein mean those described in the example.

Assay [3] deals with β-Xylosidase derived from pectinase G. Described as above. Further details: unit not given here. As to conditions: 55 °C, pH 4.0. It counts as biochemical. The method, then: as §1, §2, §3
Assay [4] concerns Diglycosidase derived from A. fumigatus. The description is as above. It counts as biochemical, Aspergillus fumigatus. To be noted: 55 °C, pH 4.0. Further details: unit not given here. The procedure:
as §1, §2, §3

In assay [5] the test system is β-Glucosidase derived from A. niger. The assay is described as above. It counts as biochemical, Aspergillus niger. Set-up: glucoside / aglycon: unit not given here. As to conditions: 55 °C, pH 4.0. The method, then:
as §1, §2, §3

`COc1cc2c(=O)c(-c3ccc(O)cc3)coc2cc1O` [glycitein]: in assay [1], the “increase of isolated aglycon versus diglycosidase alone” value (“increase” for short) came to 1.23 fold.
Turning to `O=c1c(-c2ccc(O)cc2)coc2cc(O)ccc12` [daidzein], the “increase” value in assay [1] is given as 1.2 fold.
Take `O=c1c(-c2ccc(O)cc2)coc2cc(O[C@@H]3O[C@H](CO)[C@@H](O)[C@H](O)[C@H]3O)ccc12` [daidzin]: the “Isolation of isoflavone aglycons by diglycosidase in presence of glucose” value is reported as 100% in the assay on Purified diglycosidase (Glucose concentration 0 %); 128.1% with Purified diglycosidase (Glucose concentration 2 %); 126% in the assay on Purified diglycosidase (Glucose concentration 4 %); 129.1% in the assay on Purified diglycosidase (Glucose concentration 8 %); 111.9% with Purified diglycosidase (Glucose concentration 20 %). The aglycon in assay [2] (Reaction time 0 h) is listed as 0.9; in assay [2] (Reaction time 1 h), 9.1; in assay [2] (Reaction time 3 h), 10.8; in assay [2] (Reaction time 6 h), 11.3; in assay [3] (Reaction time 0 h) it was 0.9; in assay [3] (Reaction time 1 h), 9.1. Further, the aglycon in assay [3] (Reaction time 3 h) is reported as 24; in assay [3] (Reaction time 6 h), 42.1; in assay [4] (Reaction time 0 h), 0.9; in assay [4] (Reaction time 1 h), 7.1; in assay [4] (Reaction time 3 h) it was 14.7; in assay [4] (Reaction time 6 h) it was 24.8. Further, the aglycon in assay [5] (Reaction time 0 h) is listed as 0; in assay [5] (Reaction time 1 h), 100; in assay [5] (Reaction time 3 h) it was 100; in assay [5] (Reaction time 6 h) it was 100. Moreover, the glucoside in assay [2] (Reaction time 0 h) was 99.1; in assay [2] (Reaction time 1 h), 90.9; in assay [2] (Reaction time 3 h), 89.2; in assay [2] (Reaction time 6 h), 88.7; in assay [3] (Reaction time 0 h), 99.1; in assay [3] (Reaction time 1 h) it was 90.9. The glucoside in assay [3] (Reaction time 3 h) stood at 76; in assay [3] (Reaction time 6 h), 57.9; in assay [4] (Reaction time 0 h) it was 99.1; in assay [4] (Reaction time 1 h), 92.9; in assay [4] (Reaction time 3 h) it was 85.3; in assay [4] (Reaction time 6 h), 75.2. Moreover, the glucoside was determined as 100 in assay [5] (Reaction time 0 h), 0 in assay [5] (Reaction time 1 h), 0 in assay [5] (Reaction time 3 h) and 0 in assay [5] (Reaction time 6 h). In assay [5], the “reactivity of β-glucosidase derived from Aspergillus niger (in words)” value is recorded as “act well”.
For the compound `O=c1c(-c2ccc(O)cc2)coc2cc(O)cc(O)c12` [genistein], the “increase” value in assay [1] was 1.20 fold.

(Values after patent US7118895B2, “Process for producing aglycon by using diglycosidase and flavor-improved food containing the aglycon and converting agent to be used in the process” (Amano Enzyme Inc., priority 2000, dated 2006).)
